# Source: US20160244845A1, “METHOD FOR DETERMINING THE PROGNOSIS OF PANCREATIC CANCER” (AB SCIENCE, priority 2013, published 2016)
# How the values were obtained:
# [1] = test system: pancreatic cancer patients; conditions: cited from earlier work
# [2] = test system: pancreatic cancer patients; test: Clinical phase III study AB07012 (ancillary pharmacogenomic study): overall survival of pancreatic cancer patients; conditions: ACOX1 subgroup, DCt cut-off <=3.05; 95% CI [0.10; 0.51]; p-value 0.001
compound,measurement,setting,value
C#Cc1cccc(Nc2ncnc3cc(OCCOC)c(OCCOC)cc23)c1 [Erlotinib],overall survival (OS) compared to gemcitabine treatment alone,[1]; in combination treatment with gemcitabine,therapeutic benefit
Cc1ccc(NC(=O)c2ccc(CN3CCN(C)CC3)cc2)cc1Nc1nc(-c2cccnc2)cs1 [Masitinib],hazard ratio (masitinib treatment effect with respect to placebo),[2],0.23
Folfirinox,survival rates after 2 years compared to gemcitabine alone,[1]; pancreatic cancer patients,no benefit
same,median overall survival,"[1]; pancreatic cancer patients, folfirinox: recent phase III study",11.1 months
